Measurements: article PMC8303886, “Polyphenylglyoxamide-Based Amphiphilic Small Molecular Peptidomimetics as Antibacterial Agents with Anti-Biofilm Activity” (International Journal of Molecular Sciences, 2021)
Values after ≈ are worked out from the molar mass of the structure shown. Values joined by “and” are separate entries in the source; they are usually repeats but may differ in a detail not shown here. Identical values can stand only once. Like-named read-outs stand apart in the source and are kept apart here. Values belong to the compound of their own block, whether it stands above or below them.

Assays:
[1] = system: S. aureus (SA38); assay: Minimum inhibitory concentration (MIC) assay against S. aureus; assay type: cell-based, Staphylococcus aureus; settings: S. aureus SA38, read-out: MIC S. aureus
[2] = system: MRC-5 normal human lung fibroblasts; assay: MTT cytotoxicity assay; assay type: cell-based; settings: 72 h drug incubation; for IC50: read-out: IC50 against MRC-5 normal human lung fibroblasts
Description: The IC50 values of the tested peptidomimetics were determined from a dose-response curve. […] The therapeutic indices for each tested peptidomimetic against Gram-positive S. aureus and Gram-negative E. coli were calculated by dividing the IC50 value against human cells by the corresponding MIC value (Table 2).
The toxicity of the peptidomimetics against normal human lung fibroblasts MRC-5 cells was measured, using an MTT (3-(4,5-dimethylthiazol-2-yl)-2,5-diphenyltetrazolium bromide) (Sigma Aldrich, St. Louis, MO, USA) colorimetric assay. The cells were cultured in minimal essential medium (MEM, Invitrogen) containing 10% foetal bovine serum (FBS). The cells were maintained at 37 °C in 5% CO2 as an adherent monolayer and was passaged upon reaching confluence by standard cell culture techniques. MRC-5 cells were seeded at 5000 cells/well in 96-well plates to ensure full confluence (quiescence) and left overnight to adhere to the plate wells. The adherent cells were treated with 1–500 μM of compounds by dissolving in DMSO and serially diluting with media. TY-01 was used as the positive control. The final concentration of DMSO was 0.5% (v/v). After the 72 h drug incubation, […] stock MTT solution (5 mg/mL) was added, and the cells were incubated for another 3.5–4 h. The MTT solution containing media was carefully aspirated without displacing the purple crystals from the bottom, and […] acid-isopropanol was added to all wells and mixed slowly by shaking with an orbital shaker to dissolve the dark blue crystals. […] The determination of IC50 values was performed using GraphPad Prism 7 (GraphPad, San Diego, CA, USA). Each experiment was performed in triplicate and was repeated in three independent experiments.

[3] = system: S. aureus (SA38); settings: previously reported, cited from earlier work

MIC ([1]; Staphylococcus aureus): 125 µM and 95 µg/mL
Compound: CCCCCCCCCCCCCCCCS(=O)(=O)Nc1ccc(Br)cc1C(=O)C(=O)NCCC[N+](C)(C)C.[I-] [Compound 18b, 3-(2-(5-Bromo-2-(hexadecylsulfonamido)phenyl)-2-oxoacetamido)-N,N,N-trimethylpropan-1-aminium iodide]

MIC ([1]; Staphylococcus aureus): 250 µM and 189 µg/mL
Compound: CCCCCCCCCCCCCCCCS(=O)(=O)Nc1ccc(-c2ccccc2)cc1C(=O)C(=O)NCCC[N+](C)(C)C.[I-] [Compound 18c, 3-(2-(4-(Hexadecylsulfonamido)-[1,1′-biphenyl]-3-yl)-2-oxoacetamido)-N,N,N-trimethylpropan-1-aminium iodide]

MIC [1]: 250 µM
MIC ([1]; Staphylococcus aureus): 163 µg/mL
Compound: CCCCCCCCCCCCCCCCS(=O)(=O)Nc1ccc(Br)cc1C(=O)C(=O)NCCCN(C)C.Cl [Compound 15b, 3-(2-(5-Bromo-2-(hexadecylsulfonamido)phenyl)-2-oxoacetamido)-N,N-dimethylpropan-1-aminium chloride]

MIC [1]: 63 µM
MIC ([1]; Staphylococcus aureus): 36 µg/mL
Compound: CCCCCCCCCCCCCCCCS(=O)(=O)Nc1ccccc1C(=O)C(=O)NCCCN(C)C.Cl [Compound 15a, 3-(2-(2-(Hexadecylsulfonamido)phenyl)-2-oxoacetamido)-N,N-dimethylpropan-1-aminium chloride]

MIC ([1]; Staphylococcus aureus): 16 µM and 10 µg/mL
Compound: CCCCCCCCCCCCS(=O)(=O)Nc1ccccc1C(=O)C(=O)NCCC[N+](C)(C)C.[I-] [Compound 17a, 3-(2-(2-(Dodecylsulfonamido)phenyl)-2-oxoacetamido)-N,N,N-trimethylpropan-1-aminium iodide]

MIC ([1]; Staphylococcus aureus): 250 µM and 147 µg/mL
Compound: CCCCCCCCCCCCCCCCS(=O)(=O)Nc1ccccc1C(=O)C(=O)NCCCNC(=N)N.Cl [Compound 35a, N-(3-Guanidinopropyl)-2-(2-(hexadecylsulfonamido)phenyl)-2-oxoacetamide hydrochloride]

MIC ([1]; Staphylococcus aureus): 63 µM and 48 µg/mL
Compound: CCCCCCCCCCCCS(=O)(=O)Nc1ccc(-c2ccc(-c3ccccc3)cc2)cc1C(=O)C(=O)NCCC[N+](C)(C)C.[I-] [Compound 17d, 3-(2-(4-(Dodecylsulfonamido)-[1,1′:4′,1″-terphenyl]-3-yl)-2-oxoacetamido)-N,N,N-trimethylpropan-1-aminium iodide]

MIC [1]: > 250 µM
MIC ([1]; Staphylococcus aureus): > 163 µg/mL
Compound: CCCCCCCCCCCCCCCCS(=O)(=O)Nc1ccc(-c2ccccc2)cc1C(=O)C(=O)NCCCN(C)C.Cl [Compound 15c, 3-(2-(4-(Hexadecylsulfonamido)-[1,1′-biphenyl]-3-yl)-2-oxoacetamido)-N,N-dimethylpropan-1-aminium chloride]

More lines, now with the values behind:

Compound: CCCCCCCCCCCCS(=O)(=O)Nc1ccc(-c2ccccc2)cc1C(=O)C(=O)NCCCN(C)C [Compound 11c, N-(3-(Dimethylamino)propyl)-2-(4-(dodecylsulfonamido)-[1,1′-biphenyl]-3-yl)-2-oxoacetamide]
MIC ([1]; Staphylococcus aureus): 16 µM and 8.9 µg/mL

Compound: CCCCCCCCS(=O)(=O)Nc1ccc(-c2cccc(-c3ccccc3)c2)cc1C(=O)C(=O)NCCCN(C)C [Compound 21, N-(3-(Dimethylamino)propyl)-2-(4-(octylsulfonamido)-[1,1′:3′,1″-terphenyl]-3-yl)-2-oxoacetamide]
MIC ([1]; Staphylococcus aureus): 16 µM and 9.2 µg/mL

Compound: CCCCCCCCCCCCS(=O)(=O)Nc1ccc(-c2ccccc2)cc1C(=O)C(=O)NCCCN(C)C.Cl [Compound 14c, 3-(2-(4-(Dodecylsulfonamido)-[1,1′-biphenyl]-3-yl)-2-oxoacetamido)-N,N-dimethylpropan-1-aminium chloride]
MIC [1]: 16 µM
MIC ([1]; Staphylococcus aureus): 9.5 µg/mL

Compound: CCCCCCCCS(=O)(=O)Nc1ccc(-c2cccc(-c3ccccc3)c2)cc1C(=O)C(=O)NCCCN(C)C.Cl [Compound 22, N,N-Dimethyl-3-(2-(4-(octylsulfonamido)-[1,1′:3′,1″-terphenyl]-3-yl)-2-oxoacetamido)propan-1-aminium chloride]
IC50 ([2]; Homo sapiens, MRC5, 72 h): 3.46 µM and 2.13 µg/mL
MIC [1]: 16 µM
MIC ([1]; Staphylococcus aureus): 9.8 µg/mL

Compound: CCCCCCCCS(=O)(=O)Nc1ccc(-c2ccc(-c3ccccc3)cc2)cc1C(=O)C(=O)NCCCN(C)C [Compound 10d, N-(3-(Dimethylamino)propyl)-2-(4-(octylsulfonamido)-[1,1′:4′,1″-terphenyl]-3-yl)-2-oxoacetamide]
IC50 [2]: 3.48 µM
IC50 ([2]; Homo sapiens, MRC5, 72 h): 2.01 µg/mL
MIC [1]: 8 µM
MIC ([1]; Staphylococcus aureus): 4.6 µg/mL

Compound: CCCCCCCCCCCCS(=O)(=O)Nc1ccccc1C(=O)C(=O)NCCCN(C)C.Cl [Compound 14a, 3-(2-(2-(Dodecylsulfonamido)phenyl)-2-oxoacetamido)-N,N-dimethylpropan-1-aminium chloride]
MIC ([1]; Staphylococcus aureus): 16 µM and 8.3 µg/mL

Compound: CCCCCCCCCCCCS(=O)(=O)Nc1ccc(-c2ccc(-c3ccccc3)cc2)cc1C(=O)C(=O)NCCCN(C)C [Compound 11d, N-(3-(Dimethylamino)propyl)-2-(4-(dodecylsulfonamido)-[1,1′:4′,1″-terphenyl]-3-yl)-2-oxoacetamide]
MIC ([1]; Staphylococcus aureus): 250 µM and 158 µg/mL

Compound: CCCCCCCCS(=O)(=O)Nc1ccc(-c2ccc(-c3ccccc3)cc2)cc1C(=O)C(=O)NCCCN(C)C.Cl [Compound 13d, N,N-Dimethyl-3-(2-(4-(octylsulfonamido)-[1,1′:4′,1″-terphenyl]-3-yl)-2-oxoacetamido)propan-1-aminium chloride]
IC50 against MRC-5 normal human lung fibroblasts [2]: 2.31 µg/mL
IC50 [2]: 3.76 µM
IC50 ([2]; Homo sapiens, MRC5, 72 h): ~4 µM and ~2 µg/mL
MIC ([1]; Staphylococcus aureus): 16 µM and 9.8 µg/mL

Compound: CCCCCCCCCCCCS(=O)(=O)Nc1ccc(Br)cc1C(=O)C(=O)NCCCN(C)C [Compound 11b, 2-(5-Bromo-2-(dodecylsulfonamido)phenyl)-N-(3-(dimethylamino)propyl)-2-oxoacetamide]
MIC [1]: 32 µM
MIC ([1]; Staphylococcus aureus): 18 µg/mL

Compound: CCCCCCCCS(=O)(=O)Nc1ccc(-c2ccccc2)cc1C(=O)C(=O)NCCCN(C)C [Compound 10c]
MIC S. aureus [3]: 24 μM and 12 μg/mL

Compound: CCCCCCCCCCCCS(=O)(=O)Nc1ccc(-c2ccc(-c3ccccc3)cc2)cc1C(=O)C(=O)NCCCN(C)C.Cl [Compound 14d, 3-(2-(4-(Dodecylsulfonamido)-[1,1′:4′,1″-terphenyl]-3-yl)-2-oxoacetamido)-N,N-dimethylpropan-1-aminium chloride]
MIC [1]: 125 µM
MIC ([1]; Staphylococcus aureus): 84 µg/mL

Compound: CCCCCCCCS(=O)(=O)Nc1ccc(-c2ccccc2)cc1C(=O)C(=O)NCCCN(C)C [Compound 13c]
MIC S. aureus [3]: 16 μM and 8.6 μg/mL

Compound: CCCCCCCCCCCCCCCCS(=O)(=O)Nc1ccccc1C(=O)C(=O)NCCCN(C)C [Compound 12a, N-(3-(Dimethylamino)propyl)-2-(2-(hexadecylsulfonamido)phenyl)-2-oxoacetamide]
MIC ([1]; Staphylococcus aureus): 63 µM and 34 µg/mL

Compound: CCCCCCCCS(=O)(=O)Nc1ccccc1C(=O)C(=O)NCCCNC(=N)N [Compound 33a]
MIC S. aureus [3]: 47 μM and 22 μg/mL

Compound: CCCCCCCCS(=O)(=O)Nc1ccccc1C(=O)C(=O)NCCCN(C)C [Compound 10a]
MIC S. aureus [3]: 250 μM and 106 μg/mL

Compound: CCCCCCCCS(=O)(=O)Nc1ccc(Br)cc1C(=O)C(=O)NCCCN(C)C [Compound 10b]
MIC S. aureus [3]: 94 μM and 47 μg/mL

Compound: CCCCCCCCCCCCS(=O)(=O)Nc1ccccc1C(=O)C(=O)NCCCN(C)C [Compound 11a, N-(3-(Dimethylamino)propyl)-2-(2-(dodecylsulfonamido)phenyl)-2-oxoacetamide]
MIC [1]: 32 µM
MIC ([1]; Staphylococcus aureus): 15 µg/mL

Compound: CCCCCCCCS(=O)(=O)Nc1ccc(-c2cccc(-c3ccccc3)c2)cc1C(=O)C(=O)NCCC[N+](C)(C)C.[I-] [Compound 23, N,N,N-Trimethyl-3-(2-(4-(octylsulfonamido)-[1,1′:3′,1″-terphenyl]-3-yl)-2-oxoacetamido)propan-1-aminium iodide]
IC50 ([2]; Homo sapiens, MRC5, 72 h): 15.4 µM and 11.1 µg/mL
MIC ([1]; Staphylococcus aureus): 8 µM and 5.8 µg/mL

Compound: CCCCCCCCS(=O)(=O)Nc1ccc(Br)cc1C(=O)C(=O)NCCCNC(=N)N [Compound 33b]
MIC S. aureus ([3]; listed as 1, 33b): 12 μM and 6.7 μg/mL
MIC S. aureus ([3]; listed as 1): 12 µM (≈ 6.22 µg/mL)

Compound: CCCCCCCCS(=O)(=O)Nc1ccc(Br)cc1C(=O)C(=O)NCCCN(C)C [Compound 13b]
MIC S. aureus [3]: 63 μM and 34 μg/mL

Compound: CCCCCCCCCCCCS(=O)(=O)Nc1ccc(Br)cc1C(=O)C(=O)NCCCN(C)C.Cl [Compound 14b, 3-(2-(5-Bromo-2-(dodecylsulfonamido)phenyl)-2-oxoacetamido)-N,N-dimethylpropan-1-aminium chloride]
MIC ([1]; Staphylococcus aureus): 16 µM and 9.6 µg/mL

Compound: CCCCCCCCCCCCCCCCS(=O)(=O)Nc1ccc(Br)cc1C(=O)C(=O)NCCCN(C)C [Compound 12b, 2-(5-Bromo-2-(hexadecylsulfonamido)phenyl)-N-(3-(dimethylamino)propyl)-2-oxoacetamide]
MIC ([1]; Staphylococcus aureus): 250 µM and 154 µg/mL

Compound: CCCCCCCCS(=O)(=O)Nc1ccccc1C(=O)C(=O)NCCCN(C)C [Compound 13a]
MIC S. aureus [3]: > 250 μM and > 116 μg/mL
